Tested on: Metabolism protein genes
Assay: DNA chip mRNA expression in yeast, metabolism protein genes (Table 7)
Format: cell-based, Saccharomyces cerevisiae S288C
Summary of the method: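 Value is the scanned fluorescence intensity ratio of exposed versus chemical-free cells. Log-phase S288C yeast in YPD at 25° C. received one toxic substance for two hours, dosed to slow growth without killing; Cy3/Cy5-labeled cDNA from oligo-dT-purified mRNA was hybridized to a whole-genome chip at 65° C.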

CN(C)C(=S)SSC(=S)N(C)C [(10), Tetramethylthiuram disulfide]
level of expressed mRNA in the presence/in the absence of chemical substance (yeast gene YJR143C): 0.3
The level of expressed mRNA in the presence of chemical substance/The level of expressed mRNA in the absence of chemical substance (yeast gene YJR148W): 3.0
The level of expressed mRNA in the presence of chemical substance/The level of expressed mRNA in the absence of chemical substance (yeast gene YJR155W): 18.8
The level of expressed mRNA in the presence of chemical substance/The level of expressed mRNA in the absence of chemical substance (yeast gene YKL001C): 3.4
The level of expressed mRNA in the presence of chemical substance/The level of expressed mRNA in the absence of chemical substance (yeast gene YKL035W): 1.2
level of expressed mRNA in the presence/in the absence of chemical substance (yeast gene YKL060C): 0.8
The level of expressed mRNA in the presence of chemical substance/The level of expressed mRNA in the absence of chemical substance (yeast gene YKL091C): 3.2
The level of expressed mRNA in the presence of chemical substance/The level of expressed mRNA in the absence of chemical substance (yeast gene YKL104C): 1.8
level of expressed mRNA in the presence/in the absence of chemical substance (yeast gene YKL148C): 1.7
The level of expressed mRNA in the presence of chemical substance/The level of expressed mRNA in the absence of chemical substance (yeast gene YKL152C): 1.5
level of expressed mRNA in the presence/in the absence of chemical substance (yeast gene YKL157W): 1.9
The level of expressed mRNA in the presence of chemical substance/The level of expressed mRNA in the absence of chemical substance (yeast gene YKL213C): 2.1
The level of expressed mRNA in the presence of chemical substance/The level of expressed mRNA in the absence of chemical substance (yeast gene YKL215C): 1.9
level of expressed mRNA in the presence/in the absence of chemical substance (yeast gene YKR034W): 0.6
The level of expressed mRNA in the presence of chemical substance/The level of expressed mRNA in the absence of chemical substance (yeast gene YKR039W): 2.0
The level of expressed mRNA in the presence of chemical substance/The level of expressed mRNA in the absence of chemical substance (yeast gene YLL058W): 3.6
level of expressed mRNA in the presence/in the absence of chemical substance (yeast gene YLR006C): 1.1
level of expressed mRNA in the presence/in the absence of chemical substance (yeast gene YLR044C): 1.2
level of expressed mRNA in the presence/in the absence of chemical substance (yeast gene YLR056W): 0.5
level of expressed mRNA in the presence/in the absence of chemical substance (yeast gene YLR058C): 0.1
level of expressed mRNA in the presence/in the absence of chemical substance (yeast gene YLR081W): 2.2
level of expressed mRNA in the presence/in the absence of chemical substance (yeast gene YLR089C): 0.8
The level of expressed mRNA in the presence of chemical substance/The level of expressed mRNA in the absence of chemical substance (yeast gene YLR180W): 0.9
The level of expressed mRNA in the presence of chemical substance/The level of expressed mRNA in the absence of chemical substance (yeast gene YLR273C): 2.4
level of expressed mRNA in the presence/in the absence of chemical substance (yeast gene YLR284C): 0.9
The level of expressed mRNA in the presence of chemical substance/The level of expressed mRNA in the absence of chemical substance (yeast gene YLR299W): 2.3
The level of expressed mRNA in the presence of chemical substance/The level of expressed mRNA in the absence of chemical substance (yeast gene YLR300W): 0.5
level of expressed mRNA in the presence/in the absence of chemical substance (yeast gene YLR304C): 2.2
The level of expressed mRNA in the presence of chemical substance/The level of expressed mRNA in the absence of chemical substance (yeast gene YLR307W): 0.7
The level of expressed mRNA in the presence of chemical substance/The level of expressed mRNA in the absence of chemical substance (yeast gene YLR348C): 1.3
level of expressed mRNA in the presence/in the absence of chemical substance (yeast gene YLR354C): 0.9
level of expressed mRNA in the presence/in the absence of chemical substance (yeast gene YLR372W): 0.1
level of expressed mRNA in the presence/in the absence of chemical substance (yeast gene YML022W): 0.6
The level of expressed mRNA in the presence of chemical substance/The level of expressed mRNA in the absence of chemical substance (yeast gene YML054C): 1.8
The level of expressed mRNA in the presence of chemical substance/The level of expressed mRNA in the absence of chemical substance (yeast gene YML070W): 3.9
The level of expressed mRNA in the presence of chemical substance/The level of expressed mRNA in the absence of chemical substance (yeast gene YML100W): 1.4
The level of expressed mRNA in the presence of chemical substance/The level of expressed mRNA in the absence of chemical substance (yeast gene YMR008C): 0.6
level of expressed mRNA in the presence/in the absence of chemical substance (yeast gene YMR011W): 0.7
level of expressed mRNA in the presence/in the absence of chemical substance (yeast gene YMR015C): 0.3
The level of expressed mRNA in the presence of chemical substance/The level of expressed mRNA in the absence of chemical substance (yeast gene YMR020W): 2.9
level of expressed mRNA in the presence/in the absence of chemical substance (yeast gene YMR083W): 1.1
The level of expressed mRNA in the presence of chemical substance/The level of expressed mRNA in the absence of chemical substance (yeast gene YMR105C): 2.9
The level of expressed mRNA in the presence of chemical substance/The level of expressed mRNA in the absence of chemical substance (yeast gene YMR189W): 0.9
level of expressed mRNA in the presence/in the absence of chemical substance (yeast gene YMR205C): 0.8
level of expressed mRNA in the presence/in the absence of chemical substance (yeast gene YMR261C): 1.3
The level of expressed mRNA in the presence of chemical substance/The level of expressed mRNA in the absence of chemical substance (yeast gene YMR271C): 4.4
The level of expressed mRNA in the presence of chemical substance/The level of expressed mRNA in the absence of chemical substance (yeast gene YMR296C): 0.6
level of expressed mRNA in the presence/in the absence of chemical substance (yeast gene YMR323W): 1.3
The level of expressed mRNA in the presence of chemical substance/The level of expressed mRNA in the absence of chemical substance (yeast gene YNL012W): 3.2
level of expressed mRNA in the presence/in the absence of chemical substance (yeast gene YNL025C): 1.8
The level of expressed mRNA in the presence of chemical substance/The level of expressed mRNA in the absence of chemical substance (yeast gene YNL037C): 3.2
The level of expressed mRNA in the presence of chemical substance/The level of expressed mRNA in the absence of chemical substance (yeast gene YNL045W): 1.1
The level of expressed mRNA in the presence of chemical substance/The level of expressed mRNA in the absence of chemical substance (yeast gene YNL104C): 2.0
The level of expressed mRNA in the presence of chemical substance/The level of expressed mRNA in the absence of chemical substance (yeast gene YNL106C): 1.4
The level of expressed mRNA in the presence of chemical substance/The level of expressed mRNA in the absence of chemical substance (yeast gene YNL169C): 1.1
level of expressed mRNA in the presence/in the absence of chemical substance (yeast gene YNL192W): 1.8
The level of expressed mRNA in the presence of chemical substance/The level of expressed mRNA in the absence of chemical substance (yeast gene YNL231C): 1.3
The level of expressed mRNA in the presence of chemical substance/The level of expressed mRNA in the absence of chemical substance (yeast gene YNL322C): 0.8
The level of expressed mRNA in the presence of chemical substance/The level of expressed mRNA in the absence of chemical substance (yeast gene YNL331C): 36.3
The level of expressed mRNA in the presence of chemical substance/The level of expressed mRNA in the absence of chemical substance (yeast gene YNL332W): 2.1
The level of expressed mRNA in the presence of chemical substance/The level of expressed mRNA in the absence of chemical substance (yeast gene YNR002C): 1.6
The level of expressed mRNA in the presence of chemical substance/The level of expressed mRNA in the absence of chemical substance (yeast gene YNR019W): 1.9
The level of expressed mRNA in the presence of chemical substance/The level of expressed mRNA in the absence of chemical substance (yeast gene YNR033W): 4.2
The level of expressed mRNA in the presence of chemical substance/The level of expressed mRNA in the absence of chemical substance (yeast gene YNR059W): 1.4
The level of expressed mRNA in the presence of chemical substance/The level of expressed mRNA in the absence of chemical substance (yeast gene YOL058W): 15.7
level of expressed mRNA in the presence/in the absence of chemical substance (yeast gene YOL086C): 1.2
level of expressed mRNA in the presence/in the absence of chemical substance (yeast gene YOL108C): 0.9
level of expressed mRNA in the presence/in the absence of chemical substance (yeast gene YOL116W): 1.8
The level of expressed mRNA in the presence of chemical substance/The level of expressed mRNA in the absence of chemical substance (yeast gene YOL126C): 2.4
The level of expressed mRNA in the presence of chemical substance/The level of expressed mRNA in the absence of chemical substance (yeast gene YOL143C): 1.0
The level of expressed mRNA in the presence of chemical substance/The level of expressed mRNA in the absence of chemical substance (yeast gene YOL153C): 3.2
level of expressed mRNA in the presence/in the absence of chemical substance (yeast gene YOL156W): 2.1
The level of expressed mRNA in the presence of chemical substance/The level of expressed mRNA in the absence of chemical substance (yeast gene YOL165C): 23.3
level of expressed mRNA in the presence/in the absence of chemical substance (yeast gene YOR002W): 0.9
level of expressed mRNA in the presence/in the absence of chemical substance (yeast gene YOR085W): 0.6
The level of expressed mRNA in the presence of chemical substance/The level of expressed mRNA in the absence of chemical substance (yeast gene YOR099W): 0.7
level of expressed mRNA in the presence/in the absence of chemical substance (yeast gene YOR103C): 0.9
level of expressed mRNA in the presence/in the absence of chemical substance (yeast gene YOR108W): 1.1
level of expressed mRNA in the presence/in the absence of chemical substance (yeast gene YOR128C): 0.4
The level of expressed mRNA in the presence of chemical substance/The level of expressed mRNA in the absence of chemical substance (yeast gene YOR130C): 1.7
The level of expressed mRNA in the presence of chemical substance/The level of expressed mRNA in the absence of chemical substance (yeast gene YOR136W): 3.4
level of expressed mRNA in the presence/in the absence of chemical substance (yeast gene YOR142W): 1.5
level of expressed mRNA in the presence/in the absence of chemical substance (yeast gene YOR176W): 0.5
level of expressed mRNA in the presence/in the absence of chemical substance (yeast gene YOR178C): 1.7
The level of expressed mRNA in the presence of chemical substance/The level of expressed mRNA in the absence of chemical substance (yeast gene YOR221C): 1.7
The level of expressed mRNA in the presence of chemical substance/The level of expressed mRNA in the absence of chemical substance (yeast gene YOR226C): 5.9
level of expressed mRNA in the presence/in the absence of chemical substance (yeast gene YOR251C): 0.8
The level of expressed mRNA in the presence of chemical substance/The level of expressed mRNA in the absence of chemical substance (yeast gene YOR336W): 1.5
The level of expressed mRNA in the presence of chemical substance/The level of expressed mRNA in the absence of chemical substance (yeast gene YOR347C): 0.9
level of expressed mRNA in the presence/in the absence of chemical substance (yeast gene YOR348C): 0.4
The level of expressed mRNA in the presence of chemical substance/The level of expressed mRNA in the absence of chemical substance (yeast gene YPL017C): 6.7
level of expressed mRNA in the presence/in the absence of chemical substance (yeast gene YPL028W): 0.8
level of expressed mRNA in the presence/in the absence of chemical substance (yeast gene YPL057C): 1.4
level of expressed mRNA in the presence/in the absence of chemical substance (yeast gene YPL135W): 2.8
level of expressed mRNA in the presence/in the absence of chemical substance (yeast gene YPL148C): 1.5
The level of expressed mRNA in the presence of chemical substance/The level of expressed mRNA in the absence of chemical substance (yeast gene YPR026W): 3.1
level of expressed mRNA in the presence/in the absence of chemical substance (yeast gene YPR113W): 0.8
level of expressed mRNA in the presence/in the absence of chemical substance (yeast gene YPR165W): 0.7
The level of expressed mRNA in the presence of chemical substance/The level of expressed mRNA in the absence of chemical substance (yeast gene YPR167C): 9.0
level of expressed mRNA in the presence/in the absence of chemical substance (yeast gene YPR183W): 0.6
